Results: US20190008870A1, “COMPOSITIONS AND METHODS FOR LIPID METABOLISM DISORDER” (JANSFAT BIOTECHNOLOGY CO., LTD., priority 2016, published 2019)

Assays:
ABCA1 = ABCA1 expression in HepG2 cells; type: cell-based; settings: for ABCA1 expression: 10^−5 M, 24 hours, Control 100, Vehicle 110
Protocol: The HepG2 hepatoma cell line was purchased from the American Type Culture Collection (ATCC, Manassas, Va., U.S.A.). Cells were cultured in Dulbecco's Modified Eagle's Medium (DMEM). […] Then the targeted drugs solution was incubated with the cells for 24 hours, followed by protein extraction. […] HepG2 cells were treated with various concentrations of targeted drugs for 24 hours. Reactions were terminated by washing twice with cold PBS, and the cells were then harvested. Proteins in the whole-cell lysate were homogenized in an ice-cold lysis buffer and a protease inhibitor (Sigma-Aldrich, St. Louis, Mo., U.S.A.). The homogenate was centrifuged at 90,000×g for 15 minutes at 4° C., and supernatant was recovered as the total cellular protein. Cytosolic and membrane fractions of HepG2 cells were prepared using a CNM (Cytosol Nuclear Membrane) compartmental protein extraction kit (BioChain Institute Inc., Hayward, Calif., U.S.A.) according to the manufacturer's instructions. All of the fractionated protein solutions were stored at −80° C. until analysis. To measure the expression levels of proteins by drugs, the total cell protein was extracted after incubation with treatments for 24 hours and then Western blotting analysis was performed as described previously.

HSL [1] = experiment: IHC staining of HSL in epididymal fat pads; type: in vivo, mice; settings: HFD 14 weeks, KMUP-1 2.5 mg/kg/day, Control 34
Protocol: (§1) For IHC of MMP-9/TNFα, HSL/p-HSL/ATGL and eNOS/IL-10, antigen retrieval of de-paraffinated sections was performed in Dako target retrieval solution, pH 9.0, in a vegetable steamer followed by the quenching of endogenous peroxidase activity with 3.0% H2O2 in methanol. Sections were then incubated with specific primary antibodies overnight at 4° C. in a humidified chamber. The antibodies used included rabbit polyclonal anti-eNOS (1:50 dilution) (Abcam, Cambridge, UK) or rabbit monoclonal anti-cleaved caspase-3 (1:50 dilution) (Cell Signaling, U.S.A.). The sections were then examined using a DAKO REAL EnVision™ Detection System kit (DAKO, Carpinteria, Calif., U.S.A.) and counterstained with hematoxylin. Images were obtained through a Nikon Eclipse TE200-S microscope.

IL-10 = experiment: IHC staining of IL-10 in epididymal fat pads; type: in vivo, mice; settings: HFD 14 weeks, KMUP-1 2.5 mg/kg/day, Control 31
Protocol: as §1

ApoA-I = ApoA-I expression in HepG2 cells; type: cell-based; settings: 10^−9-10^−5 M
Protocol: The HepG2 hepatoma cell line was purchased from the American Type Culture Collection (ATCC, Manassas, Va., U.S.A.). Cells were cultured in Dulbecco's Modified Eagle's Medium (DMEM). The culture media was supplemented with 5% heat-inactivated FBS, penicillin (100 U/mL) and streptomycin (100 μg/mL). Cells were grown in a humidified atmosphere containing 5% CO2 at 37° C., in which the oxygen tension in the incubator was held at 140 mmHg (20% O2, v/v; normoxic conditions). […] Then the targeted drugs solution was incubated with the cells for 24 hours, followed by protein extraction. The targeted drugs were added to the […].
HepG2 cells were treated with various concentrations of targeted drugs for 24 hours. Reactions were terminated by washing twice with cold PBS, and the cells were then harvested. Proteins in the whole-cell lysate were homogenized in an ice-cold lysis buffer and a protease inhibitor (Sigma-Aldrich, St. Louis, Mo., U.S.A.). The homogenate was centrifuged at 90,000×g for 15 minutes at 4° C., and supernatant was recovered as the total cellular protein. […]

PDE-5A = experiment: Expression of PDE-5A (Table 12); settings: Control group 100 (%)
ROCK II = experiment: Expression of ROCK II (Table 12); settings: Control group 100 (%)
LDLRs = experiment: Fluorescence staining of LDLRs in HepG2 cells; type: cell-based
Protocol: HepG2 cells were used to determine the cellular protein expression of LDLRs in the presence of exogenous LDL (500 μg/mL). […] All images were collected and analyzed by scanning with Nikon Eclipse TE200-S microscope (Tokyo, Japan).

PKA = PKA expression/immunoreactivity in HepG2 cells; type: cell-based
Protocol: HepG2 cells were treated with various concentrations of targeted drugs for 24 hours. Reactions were terminated by washing twice with cold PBS, and the cells were then harvested. Proteins in the whole-cell lysate were homogenized in an ice-cold lysis buffer and a protease inhibitor (Sigma-Aldrich, St. Louis, Mo., U.S.A.). The homogenate was centrifuged at 90,000×g for 15 minutes at 4° C., and supernatant was recovered as the total cellular protein. Cytosolic and membrane fractions of HepG2 cells were prepared using a CNM (Cytosol Nuclear Membrane) compartmental protein extraction kit (BioChain Institute Inc., Hayward, Calif., U.S.A.) according to the manufacturer's instructions. All of the fractionated protein solutions were stored at −80° C. until analysis. To measure the expression levels of proteins by drugs, the total cell protein was extracted after incubation with treatments for 24 hours and then Western blotting analysis was performed as described previously.
(§2) To determine that KMUP-1 or targeted drugs can affect PKA, we incubated KMUP-1 (10^−4, 10^−5, 10^−6 M) or targeted drugs with HepG2 cells for 24 hours to measure the protein expressions of PKA/PKG by Western blotting or PKA/PKG and HSL immunoreactivities by fluorescence staining, combined with image scanning in the absence or presence of oxidized LDL (200 μg/mL).

HSL [2] = experiment: HSL immunoreactivity in HepG2 cells; type: cell-based; settings: 24 hours
Protocol: as §2

CCC(C)(C)C(=O)O[C@H]1C[C@@H](C)C=C2C=C[C@H](C)[C@H](CC[C@@H]3C[C@@H](O)CC(=O)O3)[C@H]21 [Simva, Simvastatin, reference compound]
ABCA1 expression (ABCA1; HepG2 cells): 146

Cn1c(=O)c2c(ncn2CCN2CCN(c3ccccc3Cl)CC2)n(C)c1=O [KMUP-1, 7-[2-[4-(2-chlorophenyl)piperazinyl]ethyl]-1,3-dimethylxanthine]
Immunorespons percentages, HSL (HSL [1]): 57% | Immunorespons percentages, IL-10 (IL-10): 56% | expression of ABCA1 (ABCA1; HepG2, 10^−9-10^−5 M): increased | ABCA1 expression (ABCA1; HepG2 cells): 200 | expression of ABCA1 suppressed by FPP or GGPP (ABCA1; HepG2 cells, FPP or GGPP (10 μM) + 10^−9-10^−5 M): reversed | ApoA-I expression (ApoA-I): concentration-dependently increased | PDE-5A expression (PDE-5A): 64.5 ± 4.5% | ROCK II expression (ROCK II): 42.5 ± 6.3% | LDLR (green fluorescence) expression (LDLRs; 24 hours, KMUP-1 10^−6, 10^−5, 10^−4 M, simvastatin 10^−5 M): increased | LDLR fluorescence at high concentration (LDLRs; concentrations >10^−4 M, near the viability range): decline in fluoresence | oxLDL-induced reduction of PKA expression (PKA; HepG2 cells, 1, 10, 100 μM, 200 μg/mL oxLDL): reversed | PKA protein expression (PKA; HepG2 cells, 10, 20, 40 μM, in the presence of LDL (500 μg/mL)): could not significantly affect | PKA immunoreactivity (green fluorescence) (PKA; HepG2 cells, 24 hours): increased | HSL immunoreactivity (green fluorescence) (HSL [2]): increased
